Consider four compounds from patent publication US12637478B2, “Compound, preparation method thereof, and antibiotic composition comprising same” (priority 2020, dated 2026).

≈ marks a conversion by molar mass, not a printed value. Read-outs that look alike come from different tables or passages of the source.

The subject of test [1] is S. aureus^MS. Put plainly: MIC by broth microdilution (aerobic pathogens), test strain 2. The class given is cell-based. The following applies: Staphylococcus aureus. How it is done:
(§1) The antibacterial activity of the compounds of Examples 1 to 48 of the present invention against aerobic pathogens were evaluated by measuring the minimum concentration of the antibiotic capable of inhibiting bacterial growth by 90% compared to the growth of the non-drug treated control group. MIC was measured by the broth microdilution method based on CLSI standards [Reference: Clinical and Laboratory Standards Institute Document. (2000) Methods for Dilution Antimicrobial Susceptibility Test for Bacteria that Grow Aerobically-Fifth Edition: M7-A5. CLSI, Villanova, PA].
(§2) All 13 strains such as methicillin susceptible Staphylococcus aureus (MSSA), methicillin resistant Staphylococcus aureus (MRSA), Vancomycin resistant Staphylococcus aureus (VRSA), Staphylococcus epidermidis, methicillin resistant Staphylococcus epidermidis, Enterococcus faecalis, Vancomycin resistant Enterococcus faecalis, Enterococcus faecium, Vancomycin resistant Enterococcus faecium were used.
On the technique in general: In broth dilution the organism is exposed to a series of concentrations in liquid medium.

The subject of another test is C. difficile 174. The test can be described thus: MIC by agar dilution against Clostridioides difficile, test strain 18. The class given is cell-based. A general note: In agar dilution the substance is mixed into plates at graded concentrations.
The next test deals with E. faecalis^VanA. The test can be described thus: MIC by broth microdilution (aerobic pathogens), test strain 8. The settings on record: Enterococcus faecalis. The class given is cell-based, Vancomycin resistant Enterococcus faecalis. How it is done: as §1, §2
Another test deals with C. difficile 161. The test can be described thus: MIC by agar dilution against Clostridioides difficile, test strain 16. The test is classed as cell-based.
The next test has as its system C. difficile 9689. The test can be described thus: MIC by agar dilution against Clostridioides difficile, test strain 13. The test is classed as cell-based.
Another test has as its system E. faecium^LinR. The test can be described thus: MIC by broth microdilution (aerobic pathogens), test strain 12. The following applies: Enterococcus faecium. The test is classed as cell-based, Linezolid resistant Enterococcus faecium. As to the method: as §1, §2
Another test has as its system S. epidermis. Put plainly: MIC by broth microdilution (aerobic pathogens), test strain 5. The class given is cell-based. The following applies: Staphylococcus epidermidis. How it is done:
as §1, §2

The next test deals with C. difficile 152. The test can be described thus: MIC by agar dilution against Clostridioides difficile, test strain 14. The test is classed as cell-based.
For a further test, the system named is C. difficile 181. Put plainly: MIC by agar dilution against Clostridioides difficile, test strain 19. The test is classed as cell-based. The settings on record: test strain 19, C. difficile 181, anaerobic, agar dilution, read-out: MIC.
The subject of a further test is C. difficile 173. Put plainly: MIC by agar dilution against Clostridioides difficile, test strain 17. The test is classed as cell-based. The following applies: test strain 17, C. difficile 173, anaerobic, agar dilution, read-out: MIC.
The subject of a further test is S. aureus^VR. The test can be described thus: MIC by broth microdilution (aerobic pathogens), test strain 4. The class given is cell-based, Vancomycin resistant Staphylococcus aureus. The following applies: Staphylococcus aureus. As to the method: as §1, §2
A further test concerns E. faecalis. Put plainly: MIC by broth microdilution (aerobic pathogens), test strain 7. The test is classed as cell-based. The following applies: Enterococcus faecalis. How it is done: as §1, §2
The next test concerns E. faecium. The test can be described thus: MIC by broth microdilution (aerobic pathogens), test strain 10. The class given is cell-based. The settings on record: Enterococcus faecium. As to the method: as §1, §2
Another test concerns C. difficile 159. Put plainly: MIC by agar dilution against Clostridioides difficile, test strain 15. The class given is cell-based.
Another test has as its system S. epidermis^MR. Put plainly: MIC by broth microdilution (aerobic pathogens), test strain 6. The class given is cell-based, Methicillin resistant Staphylococcus epidermidis. The settings on record: Staphylococcus epidermidis. How it is done: as §1, §2
Test [2] relates to S. aureus^MS. Put plainly: MIC by broth microdilution (aerobic pathogens), test strain 1. The class given is cell-based. The settings on record: Staphylococcus aureus. As to the method: as §1, §2
The subject of a further test is E. faecalis^LinR. The test can be described thus: MIC by broth microdilution (aerobic pathogens), test strain 9. The test is classed as cell-based, Linezolid resistant Enterococcus faecalis. The settings on record: Enterococcus faecalis. How it is done:
as §1, §2

A further test has as its system S. aureus^MR. Put plainly: MIC by broth microdilution (aerobic pathogens), test strain 3. The class given is cell-based, Methicillin resistant Staphylococcus aureus. The settings on record: Staphylococcus aureus. As to the method:
as §1, §2

The next test concerns E. faecium^VRE. The test can be described thus: MIC by broth microdilution (aerobic pathogens), test strain 11. The test is classed as cell-based, Vancomycin resistant Enterococcus faecium. The following applies: Enterococcus faecium. How it is done:
as §1, §2

The mark [3] stands for this setting: test strain 2, S. aureus^MS, read-out: MIC.
[4] abbreviates: test strain 18, C. difficile 174, anaerobic, agar dilution, read-out: MIC.
Where [5] appears, read: test strain 8, E. faecalis^VanA (vancomycin resistant), read-out: MIC.
The mark [6] stands for this setting: test strain 16, C. difficile 161, anaerobic, agar dilution, read-out: MIC.
The mark [7] stands for this setting: test strain 13, C. difficile 9689, anaerobic, agar dilution, read-out: MIC.
[8] abbreviates: test strain 12, E. faecium^LinR (linezolid resistant), read-out: MIC.
Where [9] appears, read: test strain 5, S. epidermis, read-out: MIC.
Setting [10] is: test strain 14, C. difficile 152, anaerobic, agar dilution, read-out: MIC.
Setting [11] is: test strain 4, S. aureus^VR (vancomycin resistant), read-out: MIC.
The mark [12] stands for this setting: test strain 7, E. faecalis, read-out: MIC.
Setting [13] is: test strain 10, E. faecium, read-out: MIC.
The mark [14] stands for this setting: test strain 15, C. difficile 159, anaerobic, agar dilution, read-out: MIC.
Where [15] appears, read: test strain 6, S. epidermis^MR (methicillin resistant), read-out: MIC.
[16] abbreviates: test strain 1, S. aureus^MS, read-out: MIC.
[17] abbreviates: test strain 9, E. faecalis^LinR (linezolid resistant), read-out: MIC.
The mark [18] stands for this setting: test strain 3, S. aureus^MR (methicillin resistant), read-out: MIC.
Where [19] appears, read: test strain 11, E. faecium^VRE (vancomycin resistant), read-out: MIC.

Turning to `C/C=C1\NC(=O)[C@H]([C@@H](C)O)NC(=O)c2csc(n2)-c2ccc(-c3nc(-c4nc(C(=O)NC5(C(=O)NCCCB(O)O)CC5)cs4)cs3)nc2-c2csc(n2)[C@H]([C@@H](C)O)NC(=O)c2csc(n2)[C@H](C(C)C)NC(=O)c2csc1n2` [Compound 10], the MIC amounted to 0.0625 µg/mL (≈ 0.0533 µM) in the test with S. aureus^MS [1] (setting [3]); 0.06 µg/mL (≈ 0.0512 µM) in the test with C. difficile 174 (setting [4]); 0.25 µg/mL (≈ 0.213 µM) in the test with E. faecalis^VanA (setting [5]); 0.125 µg/mL (≈ 0.107 µM) with C. difficile 161 (setting [6]); 0.5 µg/mL (≈ 0.427 µM) in the test with C. difficile 9689 (setting [7]); 0.5 µg/mL (≈ 0.427 µM) with E. faecium^LinR (setting [8]). The MIC in the test with S. epidermis (setting [9]) was determined as 0.0625 µg/mL (≈ 0.0533 µM); with C. difficile 152 (setting [10]), 0.06 µg/mL (≈ 0.0512 µM); in the test with C. difficile 181 it was 0.25 µg/mL (≈ 0.213 µM); in the test on C. difficile 173, 0.06 µg/mL (≈ 0.0512 µM); in the test on S. aureus^VR (setting [11]), 0.5 µg/mL (≈ 0.427 µM); with E. faecalis (setting [12]), 0.25 µg/mL (≈ 0.213 µM). Besides, the MIC in the test with E. faecium (setting [13]) came to 0.25 µg/mL (≈ 0.213 µM); in the test with C. difficile 159 (setting [14]), 0.25 µg/mL (≈ 0.213 µM); with S. epidermis^MR (setting [15]) it was 0.125 µg/mL (≈ 0.107 µM); in the test with S. aureus^MS [2] (setting [16]), 0.125 µg/mL (≈ 0.107 µM); with E. faecalis^LinR (setting [17]), 0.125 µg/mL (≈ 0.107 µM); with S. aureus^MR (setting [18]), 0.5 µg/mL (≈ 0.427 µM).
As to `C/C=C(\NC(=O)c1csc(-c2csc(-c3ccc4c(n3)-c3csc(n3)[C@H]([C@@H](C)O)NC(=O)c3csc(n3)[C@H](C(C)C)NC(=O)c3csc(n3)/C(=C/C)NC(=O)[C@H]([C@@H](C)O)NC(=O)c3csc-4n3)n2)n1)C(=O)NCCCN1C(=O)CNC1=O` [Compound 40], the MIC is 0.5 µg/mL (≈ 0.408 µM) with S. aureus^MS [1]; 0.5 µg/mL (≈ 0.408 µM) against C. difficile 174 (174); 0.5 µg/mL (≈ 0.408 µM) against E. faecalis^VanA; 1 µg/mL (≈ 0.815 µM) in the test on E. faecium^VRE (VRE); 0.5 µg/mL (≈ 0.408 µM) against C. difficile 161 (161); 1 µg/mL (≈ 0.815 µM) with C. difficile 9689 (9689). Also, the MIC with E. faecium^LinR was found to be 1 µg/mL (≈ 0.815 µM); with S. epidermis, 0.5 µg/mL (≈ 0.408 µM); against C. difficile 152 (152), 0.5 µg/mL (≈ 0.408 µM); in the test with S. aureus^VR, 0.5 µg/mL (≈ 0.408 µM); against E. faecalis, 0.25 µg/mL (≈ 0.204 µM); in the test on E. faecium it was 0.5 µg/mL (≈ 0.408 µM). Moreover, the MIC stood at 1 µg/mL (≈ 0.815 µM) with C. difficile 159 (159); 0.25 µg/mL (≈ 0.204 µM) in the test with S. epidermis^MR; 0.5 µg/mL (≈ 0.408 µM) in the test on S. aureus^MS [2]; 0.5 µg/mL (≈ 0.408 µM) in the test on E. faecalis^LinR; 1 µg/mL (≈ 0.815 µM) with S. aureus^MR.
Regarding `C/C=C(\NC(=O)c1csc(-c2csc(-c3ccc4c(n3)-c3csc(n3)[C@H]([C@@H](C)O)NC(=O)c3csc(n3)[C@H](C(C)C)NC(=O)c3csc(n3)/C(=C/C)NC(=O)[C@H]([C@@H](C)O)NC(=O)c3csc-4n3)n2)n1)C(=O)NCCn1cnc([N+](=O)[O-])n1` [Compound 42], the MIC in the test on S. aureus^MS [1] (setting [3]) was found to be 1 µg/mL (≈ 0.815 µM); in the test with C. difficile 174 (setting [4]), 0.5 µg/mL (≈ 0.408 µM); in the test on E. faecalis^VanA (setting [5]), 0.5 µg/mL (≈ 0.408 µM); with E. faecium^VRE (setting [19]), 1 µg/mL (≈ 0.815 µM); in the test with C. difficile 161 (setting [6]), 1 µg/mL (≈ 0.815 µM); with C. difficile 9689 (setting [7]) it was 0.5 µg/mL (≈ 0.408 µM). Moreover, the minimum inhibitory concentration (MIC) in the test with E. faecium^LinR (setting [8]) was determined as 1 µg/mL (≈ 0.815 µM); in the test with S. epidermis (setting [9]), 0.5 µg/mL (≈ 0.408 µM); with C. difficile 152 (setting [10]), 0.5 µg/mL (≈ 0.408 µM); in the test with C. difficile 181, 0.5 µg/mL (≈ 0.408 µM); in the test with C. difficile 173, 0.5 µg/mL (≈ 0.408 µM); in the test with S. aureus^VR (setting [11]) it was 1 µg/mL (≈ 0.815 µM). In addition, the MIC in the test on E. faecalis (setting [12]) is 0.5 µg/mL (≈ 0.408 µM); in the test on E. faecium (setting [13]) it was 1 µg/mL (≈ 0.815 µM); in the test on C. difficile 159 (setting [14]) it was 0.5 µg/mL (≈ 0.408 µM); with S. epidermis^MR (setting [15]) it was 0.5 µg/mL (≈ 0.408 µM); in the test with S. aureus^MS [2] (setting [16]), 1 µg/mL (≈ 0.815 µM); in the test with E. faecalis^LinR (setting [17]), 0.5 µg/mL (≈ 0.408 µM). In addition, in the test with S. aureus^MR (setting [18]), the MIC came out at 1 µg/mL (≈ 0.815 µM).
As for `C/C=C(\NC(=O)c1csc(-c2csc(-c3ccc4c(n3)-c3csc(n3)[C@H]([C@@H](C)O)NC(=O)c3csc(n3)[C@H](C(C)C)NC(=O)c3csc(n3)/C(=C/C)NC(=O)[C@H]([C@@H](C)O)NC(=O)c3csc-4n3)n2)n1)C(=O)NCCN1CCN(C)CC1` [Compound 46], the MIC with S. aureus^MS [1] (setting [3]) was 0.5 µg/mL (≈ 0.412 µM); in the test on E. faecalis^VanA (setting [5]), 0.5 µg/mL (≈ 0.412 µM); in the test on E. faecium^VRE (setting [19]) it was 0.5 µg/mL (≈ 0.412 µM); in the test on E. faecium^LinR (setting [8]), 0.5 µg/mL (≈ 0.412 µM); with S. epidermis (setting [9]), 0.25 µg/mL (≈ 0.206 µM); with S. aureus^VR (setting [11]), 0.5 µg/mL (≈ 0.412 µM). The MIC in the test with E. faecalis (setting [12]) came to 0.5 µg/mL (≈ 0.412 µM); in the test on E. faecium (setting [13]), 0.25 µg/mL (≈ 0.206 µM); in the test with S. epidermis^MR (setting [15]), 0.25 µg/mL (≈ 0.206 µM); in the test with S. aureus^MS [2] (setting [16]) it was 0.5 µg/mL (≈ 0.412 µM); with E. faecalis^LinR (setting [17]), 0.25 µg/mL (≈ 0.206 µM); with S. aureus^MR (setting [18]), 1 µg/mL (≈ 0.825 µM).

As a reminder, the MIC is the smallest concentration in the dilution series that meets the test's criterion for growth inhibition.
